ChEMBL document CHEMBL1201862, “PubChem BioAssay data set” (2004)
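Each compound was tested at five concentrations against cells in 96-well plates for 48 hours. Abbreviation: GI50, concentration required for 50% inhibition of growth.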 Activity calls are given as the source filed them. No stated cut-off is given here; in the data, active = GI50 up to about 1.1 µM and inactive = higher.

Key:
Test in all cases: NCI-60 cell line screen, 48 h
KM-20L2 = tested on: KM-20L2
XF498 = tested on: XF498
DLD-1 = tested on: DLD-1
RXF 631 = tested on: RXF 631
M19-MEL = tested on: M19-MEL
DMS-273 = tested on: DMS-273
HOP-18 = tested on: HOP-18
DMS-114 = tested on: DMS-114

| SMILES | GI50 (KM-20L2) | GI50 (XF498) | GI50 (DLD-1) | GI50 (RXF 631) | GI50 (M19-MEL) | GI50 (DMS-273) | GI50 (HOP-18) | GI50 (DMS-114) |
| --- | --- | --- | --- | --- | --- | --- | --- | --- |
| c1cncc(C2c3[nH]c4ccccc4c3CCN2CCN2CCCCC2)c1 (configuration not stated) | > 100 µM (inactive) | > 100 µM (inactive) | > 100 µM (inactive) | > 100 µM (inactive) | > 100 µM (inactive) | > 100 µM (inactive) | > 100 µM (inactive) | > 100 µM (inactive) |
| CCOC(=O)C(C(=O)OCC)S(C)(=O)=O | > 100 µM (inactive) | > 100 µM (inactive) | > 100 µM (inactive) | > 100 µM (inactive) | > 100 µM (inactive) | > 100 µM (inactive) | > 100 µM (inactive) | > 100 µM (inactive) |
| CC(O)c1ccc[n+](Cc2ccccc2)c1 (configuration not stated) | > 400 µM (inactive) | > 400 µM (inactive) | > 400 µM (inactive) | > 400 µM (inactive) | > 400 µM (inactive) | > 400 µM (inactive) | > 400 µM (inactive) | > 400 µM (inactive) |
| COc1cc2c([C@@H](OC(=O)c3ccccc3)c3ccc4c(c3)OCO4)nccc2c(OC)c1OC | 42.1 µM (inactive) | 13.6 µM (inactive) | 53.3 µM (inactive) | 20.5 µM (inactive) | 42.2 µM (inactive) | 32.4 µM (inactive) | > 100 µM (inactive) | 16.4 µM (inactive) |
| C=CC/N=C1\NC(=O)C(CC(=O)Nc2ccc(C)cc2)S1 (configuration not stated) | > 100 µM (inactive) | > 100 µM (inactive) | > 100 µM (inactive) | > 100 µM (inactive) | > 100 µM (inactive) | > 100 µM (inactive) | > 100 µM (inactive) | > 100 µM (inactive) |
| CN(C)CCNC(=O)c1ccc(Cl)c2c(Nc3ccc(S(N)(=O)=O)cc3)c3ccccc3nc12 | 2.68 µM (inactive) | 0.165 µM (active) | 1.31 µM (inactive) | 0.566 µM (active) | 1.63 µM (inactive) | 1.55 µM (inactive) | 2.2 µM (inactive) | 1.76 µM (inactive) |
| COC(=O)c1cc2cc(OC)c(OC)cc2cc(C(=O)OC)c1=O | > 100 µM (inactive) | > 100 µM (inactive) | > 100 µM (inactive) | > 100 µM (inactive) | > 100 µM (inactive) | > 100 µM (inactive) | > 100 µM (inactive) | 29.6 µM (inactive) |
| N#CC(C(=O)/C(=N/N)C(C#N)c1ccccc1)c1ccccc1 (configuration not stated) |  | > 100 µM (inactive) | > 100 µM (inactive) | > 100 µM (inactive) | > 100 µM (inactive) |  | > 100 µM (inactive) | > 100 µM (inactive) |
